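96-well plates; 48 h exposure; 5 concentrations. Endpoints by linear interpolation between flanking doses. Not reached: highest tested concentration assigned. GI50 is the concentration that inhibits growth by half. TGI denotes the concentration required for complete inhibition of growth.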

Test systems include UACC-62 melanoma; SW-620 colon; ACHN renal; 786-0 renal; SR leukemia; SNB-75 CNS; SN12C renal; A498 renal; M14 melanoma; SF-539 CNS.
Common to all, as to assay: NCI-60 cell line screen, 48 h

With `Nc1ncnc2c1c(-c1ccc(Oc3ccccc3)cc1)nn2C[C@H]1SSC[C@H]1O`, the GI50 in the test on UACC-62 melanoma is 0.0377 µM; in the test with SW-620 colon, 0.395 µM; with ACHN renal, 0.499 µM; in the test with 786-0 renal, 2.04 µM; with SR leukemia, 0.0289 µM; in the test with SNB-75 CNS it was 2.88 µM. Further, the GI50 in the test on SN12C renal was 1.4 µM; in the test with A498 renal, 1.84 µM; in the test with M14 melanoma it was 0.0157 µM; with SF-539 CNS, 0.441 µM. In addition, the TGI was 0.145 µM in the test on UACC-62 melanoma; > 100 µM in the test on SW-620 colon; 6.75 µM with ACHN renal; 6.37 µM with 786-0 renal; 0.127 µM with SR leukemia; > 24 µM in the test on SNB-75 CNS. Moreover, the TGI in the test on SN12C renal was determined as 4.67 µM; in the test with A498 renal, 4.24 µM; with M14 melanoma, 0.0332 µM; in the test with SF-539 CNS it was 5.97 µM.
On to `COc1ccc(-n2cc(-c3ccc(F)cc3)[nH]c2=O)cc1OC`, for which the GI50 with UACC-62 melanoma, in the test with SW-620 colon, in the test with ACHN renal, with 786-0 renal, in the test with SR leukemia and in the test with SNB-75 CNS was > 100 µM in each case. Moreover, the GI50 is 58 µM in the test with SN12C renal, > 100 µM in the test with A498 renal, > 100 µM with M14 melanoma and 82.2 µM with SF-539 CNS. The TGI in the test with UACC-62 melanoma, with SW-620 colon, in the test on ACHN renal, in the test on 786-0 renal, in the test on SR leukemia and with SNB-75 CNS was > 100 µM each time. In addition, the TGI with SN12C renal, in the test on A498 renal, in the test with M14 melanoma and in the test on SF-539 CNS was > 100 µM throughout.
In the case of `O=CN/C=C\c1cc(O)ccc1O`, the TGI with UACC-62 melanoma was 17.5 µM; with SW-620 colon, 25.6 µM; with ACHN renal, 28.2 µM; in the test with 786-0 renal it was 31.1 µM; in the test on SR leukemia, 21.3 µM; with SNB-75 CNS it was > 100 µM. Besides, the TGI in the test with SN12C renal is 28.9 µM; with A498 renal it was > 100 µM; in the test on M14 melanoma, > 50.3 µM; in the test with SF-539 CNS, > 49.6 µM.
Consider `Cn1cc(C2=C(c3cn(CCCN/C(N)=N\[N+](=O)[O-])c4ccccc34)C(=O)NC2=O)c2ccccc21`, for which the GI50 is 3.1 µM in the test with UACC-62 melanoma; 5.63 µM in the test on SW-620 colon; 6.26 µM in the test on ACHN renal; 5.07 µM in the test on 786-0 renal; 0.898 µM in the test with SR leukemia; 0.161 µM with SNB-75 CNS. The GI50 was 2.65 µM with SN12C renal, 2.85 µM in the test on A498 renal, 4.8 µM with M14 melanoma and 0.968 µM in the test with SF-539 CNS. The TGI was 7.59 µM in the test with UACC-62 melanoma; > 22.1 µM in the test with SW-620 colon; > 25 µM with ACHN renal; > 25 µM with 786-0 renal; 3.96 µM with SR leukemia; 7.92 µM with SNB-75 CNS. Further, the TGI in the test on SN12C renal turned out to be 16.6 µM; in the test on A498 renal it was 9.6 µM; in the test on M14 melanoma it was 12.3 µM; in the test with SF-539 CNS, 5.11 µM.
`O=C(c1ccccc1)C(c1ccccc1)C1(O)C(=O)Nc2ccc(Br)cc21` (centres undefined): the TGI in the test on UACC-62 melanoma is 39.2 µM; with SW-620 colon, > 100 µM; in the test on ACHN renal, > 100 µM; in the test with 786-0 renal, > 100 µM; in the test on SR leukemia, > 100 µM; in the test on SNB-75 CNS it was > 100 µM. Moreover, the TGI in the test with SN12C renal, in the test with A498 renal, in the test on M14 melanoma and in the test on SF-539 CNS was > 100 µM in each case.
Turning to `O=C(Nc1ccc(-n2cc(-c3ccncc3)c(-c3ccc(Cl)c(O)c3)n2)cc1)c1ccc(Cl)c(C(F)(F)F)c1`, the GI50 in the test with UACC-62 melanoma is 2.21 µM; in the test on SW-620 colon, 1.48 µM; in the test with ACHN renal, 1.55 µM; with 786-0 renal, 0.308 µM; with SR leukemia it was 1.37 µM; with SNB-75 CNS, 0.362 µM. Besides, the GI50 was 4.39 µM in the test with SN12C renal, 5.53 µM in the test on A498 renal, 1.16 µM in the test on M14 melanoma and 0.65 µM in the test with SF-539 CNS. For the same compound, the TGI in the test with UACC-62 melanoma was 7.6 µM; in the test on SW-620 colon, 3.14 µM; in the test on ACHN renal, 5.28 µM; in the test with 786-0 renal it was 0.919 µM; in the test on SR leukemia it was > 26.2 µM; with SNB-75 CNS, 1.9 µM. Further, the TGI was > 83.6 µM in the test with SN12C renal, 34.9 µM in the test with A498 renal, 3.29 µM in the test with M14 melanoma and 2.99 µM in the test on SF-539 CNS.
With `COc1ccc2c(c1)[n+](=O)c(C(=O)C/C(=N\NC(=O)C[N+](C)(C)C)C(=O)Nc1cc(Cl)ccc1Cl)c(C)n2O`, the TGI in the test with UACC-62 melanoma, in the test on SW-620 colon, in the test on ACHN renal, in the test with 786-0 renal, with SR leukemia and with SNB-75 CNS was > 100 µM in each case. Further, the TGI in the test with SN12C renal, with A498 renal, in the test on M14 melanoma and in the test on SF-539 CNS was > 100 µM throughout.
On to `COc1ccc2c(c1)cn1c3ccc(OC)cc3[nH]c(=O)c21`, for which the GI50 with UACC-62 melanoma is < 0.0174 µM; in the test with SW-620 colon, < 0.0147 µM; in the test on ACHN renal it was < 0.0226 µM; in the test on 786-0 renal, < 0.0231 µM; in the test on SR leukemia it was < 0.01 µM; with SNB-75 CNS, 0.0203 µM. Besides, the GI50 with SN12C renal is < 0.0232 µM; with A498 renal, < 0.0258 µM; in the test with M14 melanoma it was 0.027 µM; in the test with SF-539 CNS it was < 0.0159 µM. Further, the TGI with UACC-62 melanoma turned out to be 1.39 µM; in the test with SW-620 colon, 1.36 µM; with ACHN renal it was 1.69 µM; with 786-0 renal, 1.56 µM; with SR leukemia, 1.1 µM; in the test with SNB-75 CNS, 1.19 µM. Further, the TGI was 1.65 µM in the test on SN12C renal, 1.4 µM in the test with M14 melanoma and < 0.028 µM in the test on SF-539 CNS.

(Values after PubChem BioAssay (NCI).)
